In test [1] the test system is DU145 cells. The test can be described thus: Immunoblot analysis of Triton-soluble and insoluble actin (actin polymerization). Format: cell-based, human. To be noted: DU145 cells activated with testosterone-BSA. The source says: There has been recognition that activation of mAR sites in LNCaP human prostate cancer cells results within minutes, in a significant rearrangement of the actin cytoskeleton, as indicated by the potent actin polymerization and microfilament reorganization (Kampa et al 2002). Using both, non-permeable testosterone analogs and specific inhibitors or antagonists of the intracellular androgen receptors (iAR), we provided strong evidence that in LNCaP cells this phenomenon was induced through the activation of the mARs. […] These quantitative results were fully supported by confocal laser scanning microscopic analysis of the actin cytoskeleton in testo-BSA treated DU145 cells. Indeed, a complete submembranous redistribution of the microfilamentous structures became evident within 10 minutes and persisted for at least 2 hours, as shown in FIGS. 3A-C.
The Triton-soluble proteins were precipitated with equal amounts of 6% perchloric acid (PCA). The Triton-insoluble fractions were precipitated with 1 ml of 3% PCA. Equal volumes of each fraction were subjected to SDS electrophoresis and proteins were transferred to a nitrocellulose membrane, using the LKB electrophoresis apparatus (LKB, Bromma, Sweden). […] Blots were developed using the enhanced chemiluminescence system, and the band intensities were quantitated by PC-based image analysis (Image Analysis, Inc., Ontario, Canada).

For test [2], the system named is DU145 cells. The test can be described thus: Quantitative measurement of apoptosis (APOPercentage Apoptosis Assay). Format: cell-based, human. To be noted: for effect on testo-BSA induced apoptotic response: DU145 cells, signaling inhibitors; for effect on apoptotic response of DU145 cells treated with Testo-BSA: 10^-6 M, agents blocking actin reorganization. The source says: In order to analyze a possible cross-talk between actin cytoskeleton reorganization and apoptosis upon mABS activation, we studied the apoptotic response of DU145 cells in the presence of specific agents blocking actin reorganization. […] The FACS analysis fully supported these observations. […] This assumption is in line with previously published data, showing that actin reorganization is an important signaling step, regulating NFkB translocation and transcriptional regulation of TNFα induced anti-apoptotic response (Papakonstanti and Stounaras, Mol Biol Cell, 2004).
The APOPercentage Apoptosis Assay (Biocolor Ltd., Belfast, N. Ireland) was used to quantify apoptosis, according to manufacturer's instructions. This kit uses a dye that stains red the apoptotic cells undergoing the membrane “flip-flop” event when phosphatidylserine is translocated to the outer leaflet. Detection of apoptosis can be readily observed under inverted microscopy. For apoptosis quantitation, the amount of dye within the labeled cells can subsequently be released into solution and the concentration measured at a wavelength of 550 nm (reference filter 620 nm) using a color filter microplate […] (Dynatech MicroElisa reader Chantilly, Va.).

Test [3] relates to DU-145 cells. Put plainly: Cell migration, adhesion and invasion after mAR activation. Format: cell-based, human. The source says:
(§1) This contact induced significant actin remodelling followed by a decrease in cell migration, adhesion and invasion. […] Activation of the pathway induced signaling and actin reorganization. The pathway is not activated in LNCAP cells. […] This effect was not observed with the anti-androgen flutamide.

Test [4] deals with prostate-specific antigen (PSA). Conditions: within minutes; cited from earlier work.
The test system of test [5] is RhoA. The test can be described thus: RhoA activation after mAR activation. The test is classed as cell-based, human. To be noted: 10^-7 M, DU145 cells. The source says:
Looking for an alternative mechanism mediating the non-genomic testosterone signaling in DU145 cells we analyzed a possible rapid activation of Rho-GTPase's. Indeed, among the signaling effectors that regulate such processes of actin reorganization, the best understood are small GTPases of the Rho family. Classically, plasma membrane receptors activate specific guanine exchange factors (GEFs) often via phosphorylation, which leads to subsequent loading of Rho GTPases with GTP. Active Rho GTPases continue signal transmission towards Rho coiled-coiled kinase 1 (ROCK1) and/or p21-activated kinase 1 (Pak1). Activated […] phosphorylate and activate Lim-kinases 1 and 2 (Limk1 and Limk2) respectively. Limk1 and Limk2 are closely related proteins composed of two N-terminal Lim domains and a C-terminal kinase domain. The Lim domains are protein-binding motifs frequently found in cytosolic proteins that interact with the actin cytoskeleton. Eventually, Limk1 and Limk2 phosphorylate actin-depolymerizing proteins such as cofilin and actin-depolymerizing factor (ADF), which are inactivated and thus permit actin polymerization to occur. […] To further analyze the downstream effector of RhaA activation, DU145 cells, activated with testo-BSA were treated with the specific ROCK inhibitor Y27632 and actin redistribution was documented quantitatively using the G/Total-actin ratio.

In test [6] the test system is LNCaP-inoculated nude mice. The test can be described thus: In vivo tumor growth in LNCaP-inoculated nude mice. Conditions: 8 mg/kg weight for one month, compared to control animals.
Test [7] concerns FAK/PI-3K/Rac1 pathway. The test can be described thus: FAK/PI-3K/Rac1 signaling after mAR activation. Format: cell-based, human. To be noted: DU145 cells, FAK constitutively phosphorylated. The source says: Indeed, as shown in FIGS. 5A-B, FAK was constitutively phosphorylated in DU145 cells. […] These findings imply the existence of an alternative non-genomic signaling cascade regulating the rapid actin reorganization shown in FIGS. 2A-B.

Test [8] has as its system LNCAP cells. Put plainly: Induction of apoptosis in LNCaP cells. The test is classed as cell-based, human.
Description: as §1

Numbered stars: 1 amine (or outer) side, 2 acyl side, 3 side chain; on linkers, the order of the positions; unused ones are H or OH. Bridge positions count the residues as written; N and C are the ends. Square brackets hold non-standard residues; d marks the D form. Peptide text beside a SMILES is read from it. ξ: configuration not given here. ξTrp(2-yl) = O=C(C(Cc1c([*:3])[nH]c2ccccc12)N[*:1])[*:2]; X1 = CC(O)(CO)CC(N[*:1])C(=O)[*:2]; ξAsp(3ξ-OH) = NC(C(=O)O)C(O)C(=O)O; Hyp = O=C(O)[CH]1C[CH](O)CN1

With `C[C@@H](N)[C@H]1CC[C@H](C(=O)Nc2ccncc2)CC1` [Y27632], in test [1], the “effect on testosterone-induced rapid actin polymerization” value was “totally inhibited”. Besides, the “effect on testo-BSA induced apoptotic response” value in test [2] is recorded as “abrogating”.
For `COC[C@H]1OC(=O)c2coc3c2[C@@]1(C)C1=C(C3=O)[C@@H]2CCC(=O)[C@@]2(C)C[C@H]1OC(C)=O` [wortmannin], the “effect on testosterone-induced rapid actin polymerization” value in test [1] is listed as “no effect”. The “effect on testo-BSA induced apoptotic response” value in test [2] was “no effect”.
As for “testosterone 3-(O-carboxymethyl)oxime:BSA [testosterone-BSA]”, in test [3], the “cell migration, adhesion and invasion” value is listed as “decrease”. Also, in test [4], the “secretion of prostate-specific antigen (PSA)” value is “increase”. Further, in test [5], the “persistence of RhoA activation” value is on record as “up to two hours”, the “time of maximum RhoA activation” value turned out to be 30 min and the “time to activation of RhoA” value is no more than 3 min. This compound also yielded a reduction of tumor-size in test [6] of 60%. Moreover, the FAK phosphorylation result in test [7] was “neither apparent additional FAK phosphorylation could be documented”. Besides, the induction of apoptosis entry in test [2] is recorded as “induced apoptosis”. In addition, the induction of apoptosis result in test [8] was “induced apoptosis”.
On to `C=C1[C@@H](C)[C@H]2[C@H](Cc3ccccc3)NC(=O)[C@]23OC(=O)/C=C/[C@H](O)CCC[C@@H](C)C/C=C/[C@H]3[C@@H]1O` [cytochalasin B], for which the “effect on apoptotic response of DU145 cells treated with Testo-BSA” value in test [2] was “clear inhibition”.
Same read-out and setting: under `CC1NC(=O)C2CC(O)CN2C(=O)C2CSc3[nH]c4ccccc4c3CC(NC1=O)C(=O)NC(CC(C)(O)CO)C(=O)NC(C(C)C)C(=O)NC(C(O)C(=O)O)C(=O)N2` (stereo not drawn) [phallacidin] (cyclo([ξAsp(3ξ-OH)]C[Hyp]A[ξTrp(2-yl)][X1]V); thioether 2-5; configuration not given here) stands “clear inhibition”.

These data come from patent US20090104122A1, “DETECTION OF MEMBRANE ANDROGEN RECEPTOR (mAR) AGENTS” (priority 2006, published 2009).
